From ChEMBL document CHEMBL1201862, “PubChem BioAssay data set” (2004)
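Each compound was tested at five concentrations against cells in 96-well plates for 48 hours. GI50: concentration for 50% inhibition of growth.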 Active and inactive are the calls of the source. Rule as the data show it: active = GI50 up to about 1.1 µM and inactive = higher.

Experiments:
Assay in all cases: DTP human tumour cell line panel, 48 h
ACHN = test system: ACHN
NCI-H460 = test system: NCI-H460
RXF 393 = test system: RXF 393
A549 = test system: A549
SF-295 = test system: SF-295
OVCAR-8 = test system: OVCAR-8
HOP-92 = test system: HOP-92
DMS-114 = test system: DMS-114
UACC-62 = test system: UACC-62
NCI-H226 = test system: NCI-H226
HOP-62 = test system: HOP-62
EKVX = test system: EKVX
A498 = test system: A498
SNB-19 = test system: SNB-19
HCT-116 = test system: HCT-116
HT-29 = test system: HT-29
UO-31 = test system: UO-31
IGROV-1 = test system: IGROV-1
U-251 = test system: U-251
TK-10 = test system: TK-10
M19-MEL = test system: M19-MEL
SR = test system: SR
SK-OV-3 = test system: SK-OV-3
SK-MEL-28 = test system: SK-MEL-28
OVCAR-5 = test system: OVCAR-5
NCI-H23 = test system: NCI-H23
UACC-257 = test system: UACC-257
KM12 = test system: KM12
HL-60 = test system: HL-60
SNB-78 = test system: SNB-78
M14 = test system: M14
786-0 = test system: 786-0
SK-MEL-5 = test system: SK-MEL-5
MDA-MB-435 = test system: MDA-MB-435
SW-620 = test system: SW-620
MCF7 = test system: MCF7
SN12C = test system: SN12C
RPMI-8226 = test system: RPMI-8226
SF-268 = test system: SF-268
K562 = test system: K562
LOX IMVI = test system: LOX IMVI
SF-539 = test system: SF-539
COLO 205 = test system: COLO 205
CAKI-1 = test system: CAKI-1
HCT-15 = test system: HCT-15
NCI/ADR-RES = test system: NCI/ADR-RES
HCC 2998 = test system: HCC 2998
OVCAR-4 = test system: OVCAR-4
OVCAR-3 = test system: OVCAR-3
CCRF-CEM = test system: CCRF-CEM
Hs-578T = test system: Hs-578T
MOLT-4 = test system: MOLT-4
SK-MEL-2 = test system: SK-MEL-2
BT-549 = test system: BT-549
MDA-MB-231 = test system: MDA-MB-231
T47D = test system: T47D
MDA-N = test system: MDA-N
Malme-3M = test system: Malme-3M
SNB-75 = test system: SNB-75
NCI-H522 = test system: NCI-H522
PC-3 = test system: PC-3
DU-145 = test system: DU-145

Q: With `COc1cc(O)c2c(c1C)C(C)(O)c1c(C)coc1C2=O` (stereo not given) as the molecule, how does the GI50 (ACHN) read?
A: The GI50 was > 100 µM (inactive).

Q: What about the GI50 (NCI-H460) of the same molecule?
A: Its GI50 is > 100 µM (inactive).

Q: And the GI50 (RXF 393)?
A: Its GI50 is > 100 µM (inactive).

Q: And the GI50 (A549)?
A: The GI50 was > 100 µM (inactive).

Q: What about the GI50 (SF-295) of the same molecule?
A: Its GI50 is > 100 µM (inactive).

Q: What about the GI50 (OVCAR-8) of the same molecule?
A: The GI50 was > 100 µM (inactive).

Q: What about the GI50 (HOP-92) of the same molecule?
A: Its GI50 is > 100 µM (inactive).

Q: And the GI50 (DMS-114)?
A: The GI50 was > 100 µM (inactive).

Q: And the GI50 (UACC-62)?
A: The GI50 was 74.1 µM (inactive).

Q: And the GI50 (NCI-H226)?
A: The GI50 was 99.8 µM (inactive).

Q: And the GI50 (HOP-62)?
A: Its GI50 is > 100 µM (inactive).

Q: And the GI50 (EKVX)?
A: The GI50 was > 100 µM (inactive).

Q: What about the GI50 (A498) of the same molecule?
A: Its GI50 is 89.7 µM (inactive).

Q: What about the GI50 (SNB-19) of the same molecule?
A: Its GI50 is > 100 µM (inactive).

Q: What about the GI50 (HCT-116) of the same molecule?
A: Its GI50 is > 100 µM (inactive).

Q: And the GI50 (HT-29)?
A: The GI50 was > 100 µM (inactive).

Q: And the GI50 (UO-31)?
A: Its GI50 is > 100 µM (inactive).

Q: What about the GI50 (IGROV-1) of the same molecule?
A: Its GI50 is > 100 µM (inactive).

Q: What about the GI50 (U-251) of the same molecule?
A: The GI50 was > 100 µM (inactive).

Q: What about the GI50 (TK-10) of the same molecule?
A: Its GI50 is > 100 µM (inactive).

Q: And the GI50 (M19-MEL)?
A: The GI50 was > 100 µM (inactive).

Q: And the GI50 (SR)?
A: The GI50 was > 100 µM (inactive).

Q: What about the GI50 (SK-OV-3) of the same molecule?
A: The GI50 was > 100 µM (inactive).

Q: What about the GI50 (SK-MEL-28) of the same molecule?
A: The GI50 was > 100 µM (inactive).

Q: And the GI50 (OVCAR-5)?
A: The GI50 was > 100 µM (inactive).

Q: And the GI50 (NCI-H23)?
A: The GI50 was > 100 µM (inactive).

Q: What about the GI50 (UACC-257) of the same molecule?
A: The GI50 was > 100 µM (inactive).

Q: And the GI50 (KM12)?
A: Its GI50 is > 100 µM (inactive).

Q: And the GI50 (HL-60)?
A: The GI50 was 57.7 µM (inactive).

Q: And the GI50 (SNB-78)?
A: Its GI50 is > 100 µM (inactive).

Q: What about the GI50 (M14) of the same molecule?
A: Its GI50 is > 100 µM (inactive).

Q: For `CC(C)(C)OC(=O)NC1CC2(C=C(Br)C(=O)C(Br)=C2)OC1=O` (stereo not given), which GI50 (ACHN) is on record?
A: The GI50 was 4.23 µM (inactive).

Q: And the GI50 (786-0)?
A: Its GI50 is 2.72 µM (inactive).

Q: And the GI50 (NCI-H460)?
A: The GI50 was 18.4 µM (inactive).

Q: What about the GI50 (RXF 393) of the same molecule?
A: Its GI50 is 3.58 µM (inactive).

Q: What about the GI50 (SK-MEL-5) of the same molecule?
A: The GI50 was 16.4 µM (inactive).

Q: What about the GI50 (A549) of the same molecule?
A: The GI50 was 20.2 µM (inactive).

Q: What about the GI50 (MDA-MB-435) of the same molecule?
A: Its GI50 is 7.71 µM (inactive).

Q: What about the GI50 (SF-295) of the same molecule?
A: The GI50 was 16.4 µM (inactive).

Q: What about the GI50 (OVCAR-8) of the same molecule?
A: Its GI50 is 7.14 µM (inactive).

Q: And the GI50 (HOP-92)?
A: Its GI50 is 12.5 µM (inactive).

Q: What about the GI50 (SW-620) of the same molecule?
A: The GI50 was 2.01 µM (inactive).

Q: What about the GI50 (UACC-62) of the same molecule?
A: Its GI50 is 17.6 µM (inactive).

Q: And the GI50 (MCF7)?
A: The GI50 was 11.6 µM (inactive).

Q: What about the GI50 (NCI-H226) of the same molecule?
A: The GI50 was 18.1 µM (inactive).

Q: And the GI50 (SN12C)?
A: Its GI50 is 7.33 µM (inactive).

Q: What about the GI50 (HOP-62) of the same molecule?
A: Its GI50 is 18.7 µM (inactive).

Q: And the GI50 (RPMI-8226)?
A: The GI50 was 0.968 µM (active).

Q: And the GI50 (EKVX)?
A: The GI50 was 12.9 µM (inactive).

Q: And the GI50 (A498)?
A: Its GI50 is 23.3 µM (inactive).

Q: What about the GI50 (SNB-19) of the same molecule?
A: The GI50 was 20.7 µM (inactive).

Q: And the GI50 (HCT-116)?
A: Its GI50 is 3.28 µM (inactive).

Q: And the GI50 (SF-268)?
A: Its GI50 is 17.4 µM (inactive).

Q: What about the GI50 (K562) of the same molecule?
A: The GI50 was 2.56 µM (inactive).

Q: And the GI50 (HT-29)?
A: Its GI50 is 5.74 µM (inactive).

Q: What about the GI50 (UO-31) of the same molecule?
A: Its GI50 is 5.27 µM (inactive).

Q: What about the GI50 (LOX IMVI) of the same molecule?
A: The GI50 was 13 µM (inactive).

Q: And the GI50 (SF-539)?
A: The GI50 was 18.7 µM (inactive).

Q: And the GI50 (IGROV-1)?
A: The GI50 was 16.4 µM (inactive).

Q: What about the GI50 (COLO 205) of the same molecule?
A: Its GI50 is 3.59 µM (inactive).

Q: What about the GI50 (CAKI-1) of the same molecule?
A: Its GI50 is 3.48 µM (inactive).

Q: And the GI50 (U-251)?
A: Its GI50 is 17.4 µM (inactive).

Q: And the GI50 (HCT-15)?
A: Its GI50 is 7.13 µM.

Q: And the GI50 (TK-10)?
A: The GI50 was 5.38 µM (inactive).

Q: And the GI50 (NCI/ADR-RES)?
A: Its GI50 is 14.8 µM (inactive).

Q: What about the GI50 (HCC 2998) of the same molecule?
A: The GI50 was 11.6 µM (inactive).

Q: And the GI50 (SR)?
A: Its GI50 is 0.955 µM (active).

Q: And the GI50 (OVCAR-4)?
A: The GI50 was 9.84 µM (inactive).

Q: What about the GI50 (SK-OV-3) of the same molecule?
A: The GI50 was 17.3 µM (inactive).

Q: And the GI50 (OVCAR-3)?
A: The GI50 was 10.4 µM (inactive).

Q: And the GI50 (CCRF-CEM)?
A: The GI50 was 0.165 µM (active).

Q: What about the GI50 (Hs-578T) of the same molecule?
A: The GI50 was 22 µM (inactive).

Q: What about the GI50 (MOLT-4) of the same molecule?
A: Its GI50 is 0.401 µM (active).

Q: And the GI50 (SK-MEL-2)?
A: Its GI50 is 16 µM (inactive).

Q: What about the GI50 (BT-549) of the same molecule?
A: Its GI50 is 16.5 µM (inactive).

Q: What about the GI50 (MDA-MB-231) of the same molecule?
A: Its GI50 is 17.7 µM (inactive).

Q: And the GI50 (SK-MEL-28)?
A: The GI50 was 21.1 µM (inactive).

Q: And the GI50 (OVCAR-5)?
A: Its GI50 is 18.3 µM (inactive).

Q: And the GI50 (NCI-H23)?
A: The GI50 was 7.85 µM (inactive).

Q: And the GI50 (UACC-257)?
A: Its GI50 is 5.4 µM (inactive).

Q: And the GI50 (T47D)?
A: Its GI50 is 0.536 µM (active).

Q: What about the GI50 (MDA-N) of the same molecule?
A: Its GI50 is 5.74 µM (inactive).

Q: And the GI50 (KM12)?
A: Its GI50 is 20.9 µM (inactive).

Q: And the GI50 (Malme-3M)?
A: Its GI50 is 6.24 µM (inactive).

Q: What about the GI50 (HL-60) of the same molecule?
A: Its GI50 is 2.47 µM (inactive).

Q: And the GI50 (SNB-75)?
A: The GI50 was 21.5 µM (inactive).

Q: And the GI50 (NCI-H522)?
A: The GI50 was 1.73 µM (inactive).

Q: What about the GI50 (PC-3) of the same molecule?
A: Its GI50 is 13.9 µM (inactive).

Q: And the GI50 (M14)?
A: The GI50 was 7.14 µM (inactive).

Q: And the GI50 (DU-145)?
A: Its GI50 is 13 µM (inactive).
